Experimental data: the NIST ThermoML archive (doi:10.1021/acs.jced.8b00181)

Assays:
[1] = refractive index (Na D-line) (dimensionless); mn = molality of the nth substance listed, in mol/kg; settings: 298 K, 100 kPa, Liquid, Standard Abbe refractometry
[2] = mn = molality of the nth substance listed, in mol/kg; settings: 298 K, 100 kPa, Liquid, Frequency=0.001 MHz, Alternating current cell with electrodes
[3] = refractive index (Na D-line) (dimensionless); settings: 298 K; 101.33 kPa; Liquid; Standard Abbe refractometry
[4] = 298 K; 100 kPa; Liquid; Frequency=0.001 MHz; Alternating current cell with electrodes

CC(C)O [propan-2-ol] + O
Settings	electrical conductivity, [2] [S/m]	refractive index, [1]
m1 = 0.85	0.000134	1.3374
m1 = 1.45	0.000141	1.3408
m1 = 2.84	8.2e-05	1.3467
m1 = 4.36	9.4e-05	1.3511
m1 = 8.72	5e-05	1.361
m1 = 13.08	4.7e-05	1.365

CC(C)O [propan-2-ol]
Settings	refractive index
[3]	1.3758

CCO [ethanol] + O
Settings	electrical conductivity, [2] [S/m]	refractive index, [1]
m1 = 0.9	0.000248	1.3362
m1 = 1.46	0.000259	1.3375
m1 = 2.69	0.000287	1.34
m1 = 4.09	0.000311	1.3431
m1 = 7.59	0.000251	1.3497
m1 = 9.51	0.000252	1.3521

O [water]
Settings	electrical conductivity [S/m]	refractive index
[3]	–	1.3327
[4]	0.000502	–

CCCCCCCCCCCCOS(=O)(=O)[O-].[Na+] [sodium dodecyl sulfate] + O
[2]
Settings	electrical conductivity [S/m]
m1 = 0.00099	0.00957
m1 = 0.00198	0.0183
m1 = 0.00297	0.0271
m1 = 0.00396	0.0357
m1 = 0.00495	0.0443
m1 = 0.00594	0.0528
m1 = 0.00693	0.061
m1 = 0.00792	0.0684
m1 = 0.00891	0.074
m1 = 0.0099	0.0777
m1 = 0.01089	0.0813
m1 = 0.01188	0.0846
m1 = 0.01287	0.0878
m1 = 0.01386	0.09108

CCO [ethanol]
Settings	refractive index
[3]	1.36

CCCO [propan-1-ol] + O
Settings	electrical conductivity, m1 = 0.87 [S/m]	electrical conductivity, m1 = 1.49 [S/m]	electrical conductivity, m1 = 2.76 [S/m]	electrical conductivity, m1 = 4.29 [S/m]	electrical conductivity, m1 = 6.77 [S/m]	refractive index, m1 = 0.87	refractive index, m1 = 1.49	refractive index, m1 = 2.76	refractive index, m1 = 4.29	refractive index, m1 = 6.77
[1]	–	–	–	–	–	1.3381	1.3414	1.3465	1.3516	1.3572
[2]	0.000153	0.000145	0.000111	0.000117	0.000143	–	–	–	–	–

CCCO [propan-1-ol]
Settings	refractive index
[3]	1.3834
